Results published in patent US20230338345A1, “DRUG COMBINATION AND USE THEREOF” (NATURAL MEDICINE INSTITUTE OF ZHEJIANG YANGSHENGTANG CO., …, priority 2020, published 2023).
Like-named read-outs stand apart in the source and are kept apart here.

Key:
[1] = Body weight of tumor-bearing mice (Example 1); conditions: roflumilast 4 mg/kg i.p., sodium ascorbate 1.5 g/kg i.v., every three days, 5 administrations; compared with the control
Method: (§1) (2) After tumor formation, the mice were divided into four experimental groups, namely, a blank control, a roflumilast group, a sodium ascorbate group, and a roflumilast+sodium ascorbate group. The mice in the roflumilast+sodium ascorbate group were intraperitoneally injected with roflumilast at 4 mg/kg and intravenously injected with sodium ascorbate at 1.5 g/kg every three days, for 5 administrations. At the same time, the roflumilast group and the sodium ascorbate group were separately injected with roflumilast and sodium ascorbate at the same dose in the same way; and normal saline was injected at the same dose in the blank control. The day of the first injection was taken as Day 1, and then the mice were tested and recorded in terms of body weight and tumor size: tumor volume (mm^3)=length (L) ×width (W) 2/2. Luciferin fluorescence imaging was conducted on tumors. That is, a 1 mg/mL D-luciferin potassium aqueous solution was formulated; each mouse was intraperitoneally injected with 100 μL of the D-luciferin potassium aqueous solution, and 10 minutes after injection, was subjected to luciferin fluorescence imaging with a small animal in vivo imager (Model: IVIS Lumina XRMS Series III).

[2] = mouse, in vivo
Method: as §1

O=C1O[C@H]([C@@H](O)CO)C([O-])=C1O.[Na+] [sodium ascorbate]
effect on the body weight of mice [1]: no effect on the body weight of mice

O=C(Nc1c(Cl)cncc1Cl)c1ccc(OC(F)F)c(OCC2CC2)c1 [roflumilast]
effect on the body weight of mice [2]: no effect on the body weight of mice
